In patent publication US20260297083A1, “SUBSTITUTED ACETYLENE COMPOUND DERIVATIVES AND THEIR PHARMACEUTICAL USE” (AVELOS THERAPEUTICS INC., priority 2023, published 2026):

Test system: DLD-1 BRCA2(−/−) Cell
Test: Cell viability assay (Resazurin) in DLD1-BRCA2 cells
Format: cell-based
Conditions: Homo sapiens, DLD-1, 336 h, 14 days, 1,500 cells/well, final DMSO 1%
Procedure, shortened: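 DLD1-BRCA2 KG cells seeded at 1,500/well (parental 600/well) in RPMI-1640 with 10% FBS, compound added after 4 h (1% DMSO), media replaced every 3-4 days over 14 days at 37° C. Viability read by resazurin (0.1 mg/ml, 4 h) fluorescence at Ex/Em 560/590 nm; IC50 fitted.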

IC50 [nM]	SMILES
< 1000	Cc1cc(C(F)(F)F)cc(N2[C@H](C(=O)N(CC#Cc3cnc(-c4ncon4)cn3)c3ccc(F)c(C)c3)CCS2(=O)=O)n1 [Example 58, (S)-N-(3-(5-(1,2,4-oxadiazol-3-yl)pyrazin-2-yl)prop-2-yn-1-yl)-N-(4-fluoro-3-methylphenyl)-2-(6-methyl-4-(trifluoromethyl)pyridin-2-yl)isothiazolidine-3-carboxamide 1,1-dioxide]
< 1000	Cc1cc(C(F)(F)F)cc(N2[C@H](C(=O)N(CC#Cc3cnc(C#N)cn3)c3ccc(F)c(C)c3)CCS2(=O)=O)n1 [Example 59, (S)-N-(3-(5-cyanopyrazin-2-yl)prop-2-yn-1-yl)-N-(4-fluoro-3-methylphenyl)-2-(6-methyl-4-(trifluoromethyl)pyridin-2-yl)isothiazolidine-3-carboxamide 1,1-dioxide]
> 5100	Cc1cc(C(F)(F)F)cc(N2[C@H](C(=O)N(CC#Cc3cnc(C(=O)O)cn3)c3ccc(F)c(C)c3)CCS2(=O)=O)n1 [Example 60, (S)-5-(3-(N-(4-fluoro-3-methylphenyl)-2-(6-methyl-4-(trifluoromethyl)pyridin-2-yl)-1,1-dioxidoisothiazolidine-3-carboxamido)prop-1-yn-1-yl)pyrazine-2-carboxylic acid]
> 5100	Cc1cc(C(F)(F)F)cc(N2[C@H](C(=O)N(CC#Cc3cnc(C(N)=O)cn3)c3ccc(F)c(C)c3)CCS2(=O)=O)n1 [Example 61, (S)-N-(3-(5-carbamoylpyrazin-2-yl)prop-2-yn-1-yl)-N-(4-fluoro-3-methylphenyl)-2-(6-methyl-4-(trifluoromethyl)pyridin-2-yl)isothiazolidine-3-carboxamide 1,1-dioxide]
< 1000	Cc1cc(C(F)(F)F)cc(N2[C@H](C(=O)N(CC#Cc3cnc(C(N)=O)c(C)n3)c3ccc(F)c(C)c3)CCS2(=O)=O)n1 [Example 62, (S)-N-(3-(5-carbamoyl-6-methylpyrazin-2-yl)prop-2-yn-1-yl)-N-(4-fluoro-3-methylphenyl)-2-(6-methyl-4-(trifluoromethyl)pyridin-2-yl)isothiazolidine-3-carboxamide 1,1-dioxide]
< 1000	Cc1cc(C(F)(F)F)cc(N2[C@H](C(=O)N(CC#Cc3cncc(C(N)=O)n3)c3ccc(F)c(C)c3)CCS2(=O)=O)n1 [Example 63, (S)-N-(3-(6-carbamoylpyrazin-2-yl)prop-2-yn-1-yl)-N-(4-fluoro-3-methylphenyl)-2-(6-methyl-4-(trifluoromethyl)pyridin-2-yl)isothiazolidine-3-carboxamide 1,1-dioxide]
< 1000	Cc1cc(C(F)(F)F)cc(N2[C@H](C(=O)N(CC#Cc3nccnc3C(N)=O)c3ccc(F)c(C)c3)CCS2(=O)=O)n1 [Example 64, (S)-N-(3-(3-carbamoylpyrazin-2-yl)prop-2-yn-1-yl)-N-(4-fluoro-3-methylphenyl)-2-(6-methyl-4-(trifluoromethyl)pyridin-2-yl)isothiazolidine-3-carboxamide 1,1-dioxide]
< 1000	Cc1cc(C(F)(F)F)cc(N2[C@H](C(=O)N(CC#Cc3cnc(S(N)(=O)=O)cn3)c3ccc(F)c(C)c3)CCS2(=O)=O)n1 [Example 65, (S)-N-(4-fluoro-3-methylphenyl)-2-(6-methyl-4-(trifluoromethyl)pyridin-2-yl)-N-(3-(5-sulfamoylpyrazin-2-yl)prop-2-yn-1-yl)isothiazolidine-3-carboxamide 1,1-dioxide]
< 1000	Cc1cc(C(F)(F)F)cc(N2[C@H](C(=O)N(CC#Cc3cncc(S(N)(=O)=O)n3)c3ccc(F)c(C)c3)CCS2(=O)=O)n1 [Example 66, (S)-N-(4-fluoro-3-methylphenyl)-2-(6-methyl-4-(trifluoromethyl)pyridin-2-yl)-N-(3-(6-sulfamoylpyrazin-2-yl)prop-2-yn-1-yl)isothiazolidine-3-carboxamide 1,1-dioxide]
> 5100	CNC(=O)c1cnc(C#CCN(C(=O)[C@@H]2CCS(=O)(=O)N2c2cc(C(F)(F)F)cc(C)n2)c2ccc(F)c(C)c2)cn1 [Example 67, (S)-N-(4-fluoro-3-methylphenyl)-2-(6-methyl-4-(trifluoromethyl)pyridin-2-yl)-N-(3-(5-(methylcarbamoyl)pyrazin-2-yl)prop-2-yn-1-yl)isothiazolidine-3-carboxamide 1,1-dioxide]
< 1000	Cc1cc(C(F)(F)F)cc(N2[C@H](C(=O)N(CC#Cc3cnc(C(=O)N(C)C)cn3)c3ccc(F)c(C)c3)CCS2(=O)=O)n1 [Example 68, (S)-N-(3-(5-(dimethylcarbamoyl)pyrazin-2-yl)prop-2-yn-1-yl)-N-(4-fluoro-3-methylphenyl)-2-(6-methyl-4-(trifluoromethyl)pyridin-2-yl)isothiazolidine-3-carboxamide 1,1-dioxide]
< 1000	Cc1cc(C(F)(F)F)cc(N2[C@H](C(=O)N(CC#Cc3cnc(C(=O)N4CCOCC4)cn3)c3ccc(F)c(C)c3)CCS2(=O)=O)n1 [Example 69, (S)-N-(4-fluoro-3-methylphenyl)-2-(6-methyl-4-(trifluoromethyl)pyridin-2-yl)-N-(3-(5-(morpholine-4-carbonyl)pyrazin-2-yl)prop-2-yn-1-yl)isothiazolidine-3-carboxamide 1,1-dioxide]
1100 to 5000	Cc1cc(C(F)(F)F)cc(N2[C@H](C(=O)N(CC#Cc3cncc(C(=O)N4CCOCC4)n3)c3ccc(F)c(C)c3)CCS2(=O)=O)n1 [Example 70, (S)-N-(4-fluoro-3-methylphenyl)-2-(6-methyl-4-(trifluoromethyl)pyridin-2-yl)-N-(3-(6-(morpholine-4-carbonyl)pyrazin-2-yl)prop-2-yn-1-yl)isothiazolidine-3-carboxamide 1,1-dioxide]
< 1000	Cc1cc(C(F)(F)F)cc(N2[C@H](C(=O)N(CC#Cc3cncc(C(=O)N4CC5CCC(C4)O5)n3)c3ccc(F)c(C)c3)CCS2(=O)=O)n1 [Example 71, (3S)-N-(3-(6-(8-oxa-3-azabicyclo[3.2.1]octane-3-carbonyl)pyrazin-2-yl)prop-2-yn-1-yl)-N-(4-fluoro-3-methylphenyl)-2-(6-methyl-4-(trifluoromethyl)pyridin-2-yl)isothiazolidine-3-carboxamide 1,1-dioxide]
< 1000	Cc1cc(C(F)(F)F)cc(N2[C@H](C(=O)N(CC#Cc3cncc(C(=O)N4CCNCC4)n3)c3ccc(F)c(C)c3)CCS2(=O)=O)n1 [Example 72, (S)-N-(4-fluoro-3-methylphenyl)-2-(6-methyl-4-(trifluoromethyl)pyridin-2-yl)-N-(3-(6-(piperazine-1-carbonyl)pyrazin-2-yl)prop-2-yn-1-yl)isothiazolidine-3-carboxamide 1,1-dioxide]
< 1000	Cc1cc(C(F)(F)F)cc(N2[C@H](C(=O)N(CC#Cc3cncc(C(=O)N4CC5CCC(C4)N5)n3)c3ccc(F)c(C)c3)CCS2(=O)=O)n1 [Example 73, (3S)-N-(3-(6-(3,8-diazabicyclo[3.2.1]octane-3-carbonyl)pyrazin-2-yl)prop-2-yn-1-yl)-N-(4-fluoro-3-methylphenyl)-2-(6-methyl-4-(trifluoromethyl)pyridin-2-yl)isothiazolidine-3-carboxamide 1,1-dioxide]
